# Source: patent US10039839B2, “Compounds that participate in cooperative binding and uses thereof” (Warp Drive Bio, Inc., priority 2015, dated 2018)
# Square brackets hold non-standard residues; d marks the D form. Peptide text beside a SMILES is read from it. MeBmt = C/C=C/C[C@@H](C)[C@@H](O)[C@H](NC)C(=O)O; NMeF = CN[C@@H](Cc1ccccc1)C(=O)O; NMeI = CC[C@H](C)[C@H](NC)C(=O)O; NMeL = CN[C@@H](CC(C)C)C(=O)O; NMeV = CN[C@H](C(=O)O)C(C)C; NMeA = CN[C@@H](C)C(=O)O; dNMeA = CN[C@H](C)C(=O)O; Abu = CC[C@H](N)C(=O)O; Sar = CNCC(=O)O
# Target: FKBP12 (Homo sapiens, UniProt P62942)
# Assay: AlphaLISA: inhibition of binding of biotinylated FK506 to FLAG tagged FKBP12
# Parameters: made in house
# Details: not given
# Experimental: This protocol utilizes Perkin Elmers AlphaLISA technology platform to detect FKBP binders by measuring the inhibition of binding of biotinylated FK506 to FLAG tagged FKBP12.
# Add 20 uL of 12.5 nM FKBP-FLAG working stock to each well of the 96-well plate. Add 1 uL of test compound (100% DMSO) to each well of the plate using the Janus MTD head and P20 tips (except control wells). Add 1 uL of DMSO to negative control wells and 1 uL of 50 uM FK506 solution to positive control wells. In the dark, add 20 uL of combined Donor/Acceptor beads to each well. Incubate in the dark for 30 minutes at room temperature. In the dark, add 10 uL of 5 nM biotinylated FK506 working stock to each well. Incubate in the dark for 60 minutes at room temperature. Protect plate from light until reading on Biotek Synergy2 Plate Reader; Alphalisa 96-well protocol (680 excitation/615 emission).
# Sequence of FKBP12 (P62942 whole entry, species assumed): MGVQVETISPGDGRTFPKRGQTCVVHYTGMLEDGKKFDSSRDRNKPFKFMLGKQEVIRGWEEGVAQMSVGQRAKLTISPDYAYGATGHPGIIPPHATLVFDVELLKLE
row,Structure (SMILES),IC50 [nM]
1,CCC(/C=C(\C)C(O)CCC(C)/C=C/C(O)C(C)C1CCC(C)C(O)(C(=O)C(=O)N2CCCCC2C(=O)O)O1)C/C(C)=C/C1=CC(O)C(O)C=C1 (stereo not drawn) [F14],1800
2,CCC(/C=C(\C)C(O)CCC(C)/C=C/C(O)C(C)C1CCC(C)C(O)(C(=O)C(=O)N2CCCCC2C(=O)O)O1)C/C(C)=C/C1=CC(OC)C(O)C=C1 (stereo not drawn) [F15],1930

# Same assay, conditions: read-out: Binding affinity to FKBP12 (by displacement of FK506)
row,IC50 [nM],Structure (SMILES)
1,0.21,"CC[C@H](Cc1ccccc1)[C@@H]1CCCCCC(=O)[C@@H](C)[C@H](O)[C@@H](C)[C@@H]2CC[C@@H](C)[C@@](O)(O2)C(=O)C(=O)N2CCCC[C@H]2C(=O)O1 [F24, (S)-1-(2-((2R,3R,6S)-6-((2R,3R,4S,6E,9E,11R,12R)-12-benzyl-3,11-dihydroxy-4-methyl-5-oxotetradeca-6,9-dien-2-yl)-2-hydroxy-3-methyltetrahydro-2H-pyran-2-yl)-2-oxoacetyl)piperidine-2-carboxylic acid C-11 lactone]"

# Target: T1, Cyclophilin A (Homo sapiens, UniProt P62937)
# T1 construct: made in house
# Assay: biochemical
# Assay type: binding
# Details: not given
# Experimental: This protocol utilizes Perkin Elmers AlphaLISA technology platform to detect cyclosporine analogues by measuring the inhibition of binding of biotinylated Cyclosporin A to FLAG tagged Cyclophilin A.
# Add 20 uL of 6 nM Biotinylated CsA working stock to each well of the 96-well plate. Add 1 uL of test compound (100% DMSO) to each well of the plate using the Janus MTD head and P20 tips (except control wells). Add 1 uL of DMSO to negative control wells and 1 uL of 500 uM Cyclosporin A solution to positive control wells. In the dark, add 20 uL of combined Donor/Acceptor beads to each well. Incubate in the dark for 30 minutes at room temperature. […] Incubate in the dark for 60 minutes at room temperature.
# T1 sequence (P62937 whole entry, species assumed): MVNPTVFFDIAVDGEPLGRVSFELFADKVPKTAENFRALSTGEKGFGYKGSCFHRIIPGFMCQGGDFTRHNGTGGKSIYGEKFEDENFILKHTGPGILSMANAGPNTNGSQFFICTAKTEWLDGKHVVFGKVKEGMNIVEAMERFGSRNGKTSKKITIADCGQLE
row,% inhibition of CsA binding to Cyclophilin A [%],Structure (SMILES)
1,93.73,C/C=C/C[C@@H](C)[C@@H](O)[C@H]1C(=O)N[C@@H](CC)C(=O)N(C)CC(=O)N(C)[C@H](C)C(=O)N[C@@H](CC(C)C)C(=O)N(C)[C@@H](C)C(=O)N[C@@H](C)C(=O)N[C@H](C)C(=O)N(C)[C@@H](CC(C)C)C(=O)N(C)[C@@H](CC(C)C)C(=O)N(C)[C@@H](C(C)C)C(=O)N1C [C11] (cyclo([MeBmt][Abu][Sar][dNMeA]L[NMeA]A[dA][NMeL][NMeL][NMeV]))
2,90.64,C/C=C/C[C@@H](C)[C@@H](O)[C@H]1C(=O)N[C@@H](CC)C(=O)N(C)CC(=O)N(C)[C@@H](CC(C)C)C(=O)N[C@@H](CC(C)C)C(=O)N(C)[C@@H](C)C(=O)N[C@@H](C)C(=O)N[C@H](C)C(=O)N(C)[C@@H](CC(C)C)C(=O)N(C)[C@@H](CC(C)C)C(=O)N(C)[C@@H](C(C)C)C(=O)N1C [C14] (cyclo([MeBmt][Abu][Sar][NMeL]L[NMeA]A[dA][NMeL][NMeL][NMeV]))
3,97.88,C/C=C/C[C@@H](C)[C@@H](O)[C@H]1C(=O)N[C@@H](CC)C(=O)N(C)CC(=O)N(C)[C@@H](C)C(=O)N[C@@H](C)C(=O)N(C)CC(=O)N[C@@H](C)C(=O)N[C@H](C)C(=O)N(C)[C@@H](CC(C)C)C(=O)N(C)[C@@H](CC(C)C)C(=O)N(C)[C@@H](C(C)C)C(=O)N1C [C18] (cyclo([MeBmt][Abu][Sar][NMeA]A[Sar]A[dA][NMeL][NMeL][NMeV]))
4,99.63,C/C=C/C[C@@H](C)[C@@H](O)[C@H]1C(=O)N[C@@H](CC)C(=O)N(C)CC(=O)N(C)[C@@H]([C@@H](C)CC)C(=O)N[C@@H](C(C)C)C(=O)N(C)CC(=O)N[C@@H](C)C(=O)N[C@H](C)C(=O)N(C)[C@@H](CC(C)C)C(=O)N(C)[C@@H](CC(C)C)C(=O)N(C)[C@@H](C(C)C)C(=O)N1C [C25] (cyclo([MeBmt][Abu][Sar][NMeI]V[Sar]A[dA][NMeL][NMeL][NMeV]))
5,94.73,C/C=C/C[C@@H](C)[C@@H](O)[C@H]1C(=O)N[C@@H](CC)C(=O)N(C)CC(=O)N(C)[C@H](C)C(=O)N[C@@H](C(C)C)C(=O)N(C)CC(=O)N[C@@H](C)C(=O)N[C@H](C)C(=O)N(C)[C@@H](CC(C)C)C(=O)N(C)[C@@H](CC(C)C)C(=O)N(C)[C@@H](C(C)C)C(=O)N1C [C27] (cyclo([MeBmt][Abu][Sar][dNMeA]V[Sar]A[dA][NMeL][NMeL][NMeV]))
6,98.94,C/C=C/C[C@@H](C)[C@@H](O)[C@H]1C(=O)N[C@@H](CC)C(=O)N(C)CC(=O)N(C)[C@@H](Cc2ccccc2)C(=O)N[C@@H](C(C)C)C(=O)N(C)CC(=O)N[C@@H](C)C(=O)N[C@H](C)C(=O)N(C)[C@@H](CC(C)C)C(=O)N(C)[C@@H](CC(C)C)C(=O)N(C)[C@@H](C(C)C)C(=O)N1C [C28] (cyclo([MeBmt][Abu][Sar][NMeF]V[Sar]A[dA][NMeL][NMeL][NMeV]))
7,98.77,C/C=C/C[C@@H](C)[C@@H](O)[C@H]1C(=O)N[C@@H](CC)C(=O)N(C)CC(=O)N(C)CC(=O)N[C@@H](C(C)C)C(=O)N(C)CC(=O)N[C@@H](C)C(=O)N[C@H](C)C(=O)N(C)[C@@H](CC(C)C)C(=O)N(C)[C@@H](CC(C)C)C(=O)N(C)[C@@H](C(C)C)C(=O)N1C [C29] (cyclo([MeBmt][Abu][Sar][Sar]V[Sar]A[dA][NMeL][NMeL][NMeV]))

# Same assay, conditions: read-out: IC50 value of CsA binding to Cyclophilin A
row,IC50 [nM],Structure (SMILES)
1,< 2000,C/C=C/C[C@@H](C)[C@@H](O)[C@H]1C(=O)N[C@@H](CC)C(=O)N(C)CC(=O)N(C)[C@H](C)C(=O)N[C@@H](CC(C)C)C(=O)N(C)[C@@H](C)C(=O)N[C@@H](C)C(=O)N[C@H](C)C(=O)N(C)[C@@H](CC(C)C)C(=O)N(C)[C@@H](CC(C)C)C(=O)N(C)[C@@H](C(C)C)C(=O)N1C [C11] (cyclo([MeBmt][Abu][Sar][dNMeA]L[NMeA]A[dA][NMeL][NMeL][NMeV]))

# Test system: HeLa-FKBP12 cells
# Assay: Biosensor cell permeability assay, FKBP binding compounds
# Assay type: cell-based
# Details: 72 hrs
# Experimental: This protocol utilizes a modified FKBP or cyclophilin destabilizing mutant to determine the bioactivity of FKBP binding compounds or cyclophilin binding compounds in whole cell assay.
# Plate HeLa-FKBP12 cells (for FKBP binding compounds) or HeLa-Cyclophilin A cells (for cyclophilin binding compounds) and seed overnight at 5 k/well (approximately ˜18 hrs.). Using a multi-channel pipet, take out the old media and add ˜125 ul of new media with compounds. Compounds are diluted using DMEM without Phenol Red, 10% FBS, 1× Sodium Pyruvate, 1× Glutamax. Add 125 ul of media with compound per well. Cells are treated with compounds at concentration: 30, 10, 3.33, 1.11, 0.37, 0.12, 0.04 and 0.013 uM. Time points are taken at 72 hrs and plate read using plate reader with excitation/emission: 575/620.
# Cell binding/permeability is calculated in fold-change (Total RFU of treated samples/total RFU of DMSO treated samples or total RFU above background (Total RFU minus total RFU of DMSO treated samples).
row,Structure (SMILES),IC50 [nM]
1,CCC(/C=C(\C)C(O)CCC(C)/C=C/C(O)C(C)C1CCC(C)C(O)(C(=O)C(=O)N2CCCCC2C(=O)O)O1)C/C(C)=C/C1=CC(O)C(O)C=C1 (stereo not drawn) [F14],> 1000
